Experimental data taken from patent US10562888B2, “Crystalline FGFR4 inhibitor compound and uses thereof” (Eisai R&D Management Co., Ltd., priority 2015, dated 2020).
In brackets after ≈: the same amount, converted by molar mass.

Test: Solubility in 0.1 N HCl
Assay type: physicochemical
Details: simulated gastric fluid

Work on `C=CC(=O)Nc1cc(N2CCN(CC)CC2)ccc1Nc1cc(N(C)C(=O)Nc2c(Cl)c(OC)cc(OC)c2Cl)ncn1` [Compound 108, N-(2-((6-(3-(2,6-dichloro-3,5-dimethoxyphenyl)-1-methylureido)pyrimidin-4-yl)amino)-5-(4-ethylpiperazin-1-yl)phenyl)acrylamide] yielded a solubility of 5200 µg/mL (≈ 8.26 mM).
